From the NIST ThermoML archive (doi:10.1021/acs.jced.7b00026)

What was measured:
[1] = Boiling temperature at pressure P; conditions: Liquid, Ebulliometric method (Recirculating still)
[2] = refractive index (Na D-line) (dimensionless); conditions: 293.15 K; 101.33 kPa; Liquid; Standard Abbe refractometry
[3] = Liquid; for mass density: 293.15 K, 101.33 kPa, Vibrating tube method

CC(=O)CC(C)C [4-methylpentan-2-one]
[1]
Conditions | Boiling temperature at pressure P [°C]
9.22 kPa | 49.67
9.9 kPa | 51.26
17.52 kPa | 64.70
18.41 kPa | 65.96
31.36 kPa | 79.73
32.13 kPa | 80.39
39.89 kPa | 86.5
53.99 kPa | 95.31
69.89 kPa | 103.21

Conditions | mass density [kg/m3] | refractive index
[2] | – | 1.39586
[3] | 800.3 | –

[3], Ebullio
Conditions | vapor or sublimation pressure [kPa]
323.15 K | 9.22
338.15 K | 17.57
353.15 K | 31.41
368.15 K | 54.04

CCCO [propan-1-ol]
[1]
Conditions | Boiling temperature at pressure P [°C]
14.9 kPa | 53.83
25.89 kPa | 64.94
29.9 kPa | 67.97
39.89 kPa | 74.30
51.21 kPa | 79.99
59.89 kPa | 83.71
69.89 kPa | 87.44
79.88 kPa | 90.76
93.89 kPa | 94.87
99.88 kPa | 96.46

Conditions | mass density [kg/m3] | refractive index
[2] | – | 1.38512
[3] | 803.66 | –

[3], Ebullio
Conditions | vapor or sublimation pressure [kPa]
338.15 K | 25.92
353.15 K | 51
368.15 K | 93.92

CC(C)O [propan-2-ol]
Conditions | Boiling temperature at pressure P [°C] | vapor or sublimation pressure [kPa]
[1], 14.9 kPa | 41.28 | –
[1], 23.43 kPa | 49.88 | –
[1], 29.9 kPa | 54.82 | –
[1], 39.89 kPa | 60.83 | –
[1], 48.34 kPa | 64.99 | –
[1], 59.89 kPa | 69.8 | –
[1], 69.89 kPa | 73.30 | –
[1], 79.88 kPa | 76.49 | –
[1], 92.4 kPa | 79.99 | –
[1], 98.88 kPa | 81.67 | –
[3], 323.15 K | – | 23.48
[3], 338.15 K | – | 48.45
[3], 353.15 K | – | 92.48

Conditions | mass density [kg/m3] | refractive index
[2] | – | 1.37718
[3] | 784.99 | –
